Assay results published in patent publication US11466025B2, “Thienopyridine derivatives containing unsaturated aliphatic olefinic bond, preparation method and use thereof” (Tianjin Institute of Pharmaceutical Research Co., Ltd., priority 2017, dated 2022).
Read-outs that look alike come from different tables or passages of the source.

How the values were obtained:
[1] = test system: platelet aggregation induced by ADP; assay: Test of inhibitory effect of compounds on platelet aggregation in rats (ex vivo, ADP-induced, after intragastric administration); set-up: species or system SD rats; settings: for ED50: Rattus norvegicus; for Inhibition rate (%): platelet aggregation, control = 100%; for Aggregation rate (%): 2 h after administration, ADP 20 uM
Experimental: Test of Inhibitory Effect of Compounds on Platelet Aggregation in Rats Healthy male SD rats were selected and randomly divided into solvent control group, positive drug control group and test compound group. Intragastric administration was carried out, with the administration volume being 10 ml/kg˜bw. […] The platelet count was adjusted to 5×10^8 cells/ml with PPP.

[2] = test system: arteriovenous bypass thrombosis in rats; assay: Test of effect of compounds on arteriovenous bypass thrombosis in rats; assay type: in vivo, SD rats; settings: rats; for ED50: Rattus norvegicus, po, dry weight of thrombus from arteriovenous bypass, intragastric, read-out: ED50; for Inhibition rate (%): dry weight of thrombus
Experimental: Test of Effect of Compounds on Arteriovenous Bypass Thrombosis in Rats
Male SD rats were randomly divided into solvent control group, positive drug control group and test compound group. The solvent control group was administered a corresponding volume of the solvent. […] Rats were anesthetized with 4% chloral hydrate (0.32 g/kg), and fixed on the operating table at the supine position. The right common carotid artery and the left external jugular vein were separated, and was each inserted with a Teflon tube filled with normal saline solution containing heparin (50 U/mL), which were connected through another Teflon tube. A 6 cm long cotton thread was placed at the joints of the two tubes. After 2.5 h of administration, the arteriovenous loop was opened in each group and circulated for 15 min. The blood flow was interrupted, and the cotton thread wrapped with the thrombus was quickly removed and weighed. The weight of the cotton thread was subtracted to obtain the wet weight of the thrombus, and then it was baked in the oven to constant weight and weighed. The weight of the cotton thread was subtracted to obtain the dry weight of the thrombus.

[3] = test system: bleeding time of amputated tail in rats; assay: Test of hemorrhagic side effects: bleeding time of amputated tail in rats; assay type: in vivo, SD rats; settings: intragastric, tail cut 1 h after administration, linear equation fitted
Experimental: Test of Hemorrhagic Side Effects:
1 h after administration, the rats were anesthetized by intraperitoneal injection of 20% urethane (1 g/kg), and the tail was cut off 5 mm from the tip of the tail, which was then placed in a test tube containing 5 ml normal saline at 37° C. The time from tail cut to cease of bleeding was recorded as the bleeding time. The increasing rate of bleeding time in each dose group was calculated, with the bleeding time of the rats in the control group being 100%.

[4] = Stability of the compounds under high temperature, high humidity and light (influence factors, HPLC); assay type: physicochemical
Experimental: Study on the Stability of the Compounds:
The stability of the compound is investigated under the conditions of high temperature, high humidity and light. The testing conditions for high performance liquid chromatography (HPLC) are as follows:
Instrument: high performance liquid chromatography;
Column: Inertsil C8-3, 150 mm×4.6 mm, 5 μm;
Mobile phase A: acetonitrile; mobile phase B: 5 mM ammonium dihydrogen phosphate;
Detection wavelength: 220 nm;
Column temperature: 35° C.;
Sample chamber temperature: 25° C.;
Column: Agilent Poroshell 120 EC-C18, 100 mm×4.6 mm, 2.7 μm;
Column temperature: 30° C.;
Other conditions are the same as that in Method 1.
Samples relating to Compound I-2 were tested using Method 2 and other samples were tested using Method 1. The test results of the influence factors are shown in Table 14, and the test results of the light-avoidance stability test are shown in Table 15.

[5] = for Concentration of incubated compound in human plasma / Incubated compound in human plasma, %: 1 μM
Experimental: Plasma samples (double sample) containing 1 μM of the compounds of the present invention, clopidogrel hydrogen sulfate (LBGL), 2-oxo product (2-Oxo) were prepared from human blank plasma, and incubated at 37° C. 50 μL of the above incubated plasma samples were taken at different time points, and 100 μL of precipitant (acetonitrile:methanol=7:3) and 50 μL of internal standard were added. The mixture was vortexed for 1 min and centrifuged for 10 min. 100 μL of the supernatant was taken into an inner inserted tube, centrifuged for 5 min, and injected for LC-MS/MS analysis.
Preparation of blank control sample (PPT-0): 100 μL of frozen human blank plasma was taken, to which 195 μL of acetonitrile and 100 μL of internal standard were added, followed by 5 μL of the compound of the present invention, clopidogrel or 2-oxo product (20 μM). The mixture was vortexed for 1 min and centrifuged for 10 min. 100 μL of the supernatant was taken into an inner inserted tube, centrifuged for 5 min, and injected for LC-MS/MS analysis.

[6] = inhibition of ADP-induced platelet aggregation, rats, oral administration, read-out: ED50
[7] = 5 days, High temperature 60° C.
[8] = 10 days, High temperature 60° C.
[9] = 30 days, High temperature 60° C.

## CC(=O)Oc1cc2c(s1)CCN(C(C(=O)C1CC1)c1ccccc1F)C2 (centres unmarked) [Prasugrel, reference compound]
[1]; [6]
  ED50: 0.612 mg/kg
[1]; rats, intragastric 0.25 mg/kg
  Inhibition rate (%): 13.3%
  Aggregation rate (%): 52.1 ± 6.6%
[1]; rats, intragastric 0.5 mg/kg
  Inhibition rate (%): 37.8%
  Aggregation rate (%): 37.4 ± 12.3 %
[1]; rats, intragastric 1 mg/kg
  Inhibition rate (%): 75.0%
  Aggregation rate (%): 15.0 ± 10.2 %
[2]
  ED50: 1.57 mg/kg
[2]; intragastric 0.1 mg/kg
  Inhibition rate (%): 6.0%
[2]; intragastric 0.3 mg/kg
  Inhibition rate (%): 9.0%
[2]; intragastric 1 mg/kg
  Inhibition rate (%): 35.7%
[2]; intragastric 3 mg/kg
  Inhibition rate (%): 70.2%
[3]
  ED200 (dose that doubled the bleeding time): 0.513 mg/kg

## COC(=O)[C@H](c1ccccc1Cl)N1CCc2sc(OC(=O)/C=C/c3ccc(OC)cc3)cc2C1 [Compound D-8, Methyl (S,E)-2-(2-chlorophenyl)-2-(2-(3-(4-methoxyphenyl)acryloyloxy)-6,7-dihydrothieno[3,2-c]pyridin-5(4H)-yl)-acetate, reference compound]
[4]; 0 day, 0point
  Chromatographic purity %: 99.118%
  Individual maximum impurity %: 0.135%
[4]; 5 days, High humidity RH92.5%
  Chromatographic purity %: 99.253%
  Individual maximum impurity %: 0.127%
[4]; [7]
  Chromatographic purity %: 96.953%
  Individual maximum impurity %: 0.510%
[4]; 5 days, Light 4500 ± 500 LX
  Chromatographic purity %: 91.635%
  Individual maximum impurity %: 1.094%
[4]; 10 days, High humidity RH92.5%
  Chromatographic purity %: 99.202%
  Individual maximum impurity %: 0.104%
[4]; [8]
  Chromatographic purity %: 93.371%
  Individual maximum impurity %: 1.224%
[4]; 10 days, Light 4500 ± 500 LX
  Chromatographic purity %: 80.960%
  Individual maximum impurity %: 2.821%
[4]; 30 days, High humidity RH92.5%
  Chromatographic purity %: 98.933%
  Individual maximum impurity %: 0.172%
[4]; [9]
  Chromatographic purity %: 80.070%
  Individual maximum impurity %: 5.418%
[4]; 30 days, Light 4500 ± 500 LX
  Chromatographic purity %: 59.908%
  Individual maximum impurity %: 8.206%

## CCC/C=C/C(=O)Oc1cc2c(s1)CCN([C@H](C(=O)OC)c1ccccc1Cl)C2 [Compound I-5, Methyl (S,E)-2-(2-chlorophenyl)-2-(2-(2-hexenoyloxy)-6,7-dihydrothieno[3,2-c]pyridin-5(4H)-yl)-acetate]
[1]; Platelet, po
  ED50: 1.03 mg/kg
[1]; rats, intragastric 0.5 mg/kg
  Inhibition rate (%): 19.5%
  Aggregation rate (%): 48.4 ± 17.3%
[1]; rats, intragastric 1 mg/kg
  Inhibition rate (%): 52.8%
  Aggregation rate (%): 28.3 ± 11.7 %
[1]; rats, intragastric 2 mg/kg
  Inhibition rate (%): 74.3%
  Aggregation rate (%): 15.4 ± 14.7 %

## COC(=O)[C@H](c1ccccc1Cl)N1CCc2sccc2C1 [Clopidogrel, reference compound]
[1]; [6]
  ED50: 4.13 mg/kg
[1]; rats, intragastric 2.5 mg/kg
  Inhibition rate (%): 26.5%
  Aggregation rate (%): 44.1 ± 13.5%
[1]; rats, intragastric 5 mg/kg
  Inhibition rate (%): 59.7%
  Aggregation rate (%): 24.2 ± 10.6 %
[1]; rats, intragastric 10 mg/kg
  Inhibition rate (%): 90.5%
  Aggregation rate (%): 5.7 ± 7.5 %
[2]
  ED50: 11.8 mg/kg
[2]; intragastric 3 mg/kg
  Inhibition rate (%): 24.2%
[2]; intragastric 10 mg/kg
  Inhibition rate (%): 41.5%
[2]; intragastric 30 mg/kg
  Inhibition rate (%): 72.6%
[5]; 0 min
  Concentration of incubated compound in human plasma: 965 nM
  Incubated compound in human plasma, %: 98.1%
[5]; 5 min
  Concentration of incubated compound in human plasma: 1045 nM
  Incubated compound in human plasma, %: 106%
[5]; 10 min
  Concentration of incubated compound in human plasma: 1000 nM
  Incubated compound in human plasma, %: 102%
[5]; 20 min
  Concentration of incubated compound in human plasma: 987 nM
  Incubated compound in human plasma, %: 100%
[5]; 30 min
  Concentration of incubated compound in human plasma: 1025 nM
  Incubated compound in human plasma, %: 104%
[5]; 45 min
  Concentration of incubated compound in human plasma: 995 nM
  Incubated compound in human plasma, %: 101%
[5]; 60 min
  Concentration of incubated compound in human plasma: 981 nM
  Incubated compound in human plasma, %: 100%
[5]; 90 min
  Concentration of incubated compound in human plasma: 924 nM
  Incubated compound in human plasma, %: 94.0%
[5]; 120 min
  Concentration of incubated compound in human plasma: 944 nM
  Incubated compound in human plasma, %: 96.0%
[5]; plasma, 2 h
  Stability in human plasma: substantially stable

## CC/C=C/C(=O)Oc1cc2c(s1)CCN([C@H](C(=O)OC)c1ccccc1Cl)C2 [Compound I-4, Methyl (S,E)-2-(2-chlorophenyl)-2-(2-(2-pentenoyloxy)-6,7-dihydrothieno[3,2-c]pyridin-5(4H)-yl)-acetate]
[1]; [6]
  ED50: 1.27 mg/kg
[1]; rats, intragastric 0.5 mg/kg
  Inhibition rate (%): 26.2%
  Aggregation rate (%): 44.3 ± 25.8%
[1]; rats, intragastric 1 mg/kg
  Inhibition rate (%): 38.2%
  Aggregation rate (%): 37.1 ± 20.8%
[1]; rats, intragastric 2 mg/kg
  Inhibition rate (%): 62.9%
  Aggregation rate (%): 22.3 ± 17.2 %
[1]; rats, intragastric 4 mg/kg
  Inhibition rate (%): 78.4%
  Aggregation rate (%): 13.0 ± 11.3 %
[1]; rats, intragastric 8 mg/kg
  Inhibition rate (%): 100.0%
  Aggregation rate (%): 0.0 ± 0.0 %

## COC(=O)[C@H](c1ccccc1Cl)N1CCc2sc(OC(C)=O)cc2C1.Cl [Compound D-9, Methyl (S,E)-2-(2-chlorophenyl)-2-(2-acetoxy-6,7-dihydrothieno[3,2-c]pyridin-5(4H)-yl)-acetate Hydrochloride, reference compound]
[4]; 0 day, 0point
  Chromatographic purity %: 99.802%
  Individual maximum impurity %: 0.062%
[4]; 5 days, High humidity RH92.5%
  Chromatographic purity %: 29.362%
  Individual maximum impurity %: 20.760%
[4]; [7]
  Chromatographic purity %: 92.725%
  Individual maximum impurity %: 2.897%
[4]; 5 days, Light 4500 ± 500 LX
  Chromatographic purity %: 97.637%
  Individual maximum impurity %: 0.946%
[4]; 10 days, High humidity RH92.5%
  Chromatographic purity %: 3.827%
  Individual maximum impurity %: 26.942%
[4]; [8]
  Chromatographic purity %: 84.395%
  Individual maximum impurity %: 5.254%
[4]; 10 days, Light 4500 ± 500 LX
  Chromatographic purity %: 96.472%
  Individual maximum impurity %: 1.621%
[4]; 30 days, High humidity RH92.5%
  Individual maximum impurity %: 52.717%
[4]; [9]
  Chromatographic purity %: 39.866%
  Individual maximum impurity %: 9.740%
[4]; 30 days, Light 4500 ± 500 LX
  Chromatographic purity %: 91.198%
  Individual maximum impurity %: 3.728%

## C=C/C=C/C(=O)Oc1cc2c(s1)CCN([C@H](C(=O)OC)c1ccccc1Cl)C2 [Compound I-3, Methyl (S,E)-2-(2-chlorophenyl)-2-(2-(2,4-pentadienoyloxy)-6,7-dihydrothieno[3,2-c]pyridin-5(4H)-yl)-acetate]
[1]; [6]
  ED50: 1.04 mg/kg
[1]; rats, intragastric 1 mg/kg
  Inhibition rate (%): 44.0%
  Aggregation rate (%): 33.6 ± 31.3%
[1]; rats, intragastric 2 mg/kg
  Inhibition rate (%): 97.6%
  Aggregation rate (%): 1.44 ± 2.5 %
[1]; rats, intragastric 4 mg/kg
  Inhibition rate (%): 100%
  Aggregation rate (%): 0.0 ± 0.0 %
